# Measurements published in patent US6641571B2, “Reduction of postoperative complications of cardiopulmonary bypass (CPB) surgery” (Ed. Geistlich Soehne AG fuer Chemische Industrie, priority 2000, dated 2003).
# Assays:
# Format in all cases: in vivo, human
# IL-6 = test: Randomized clinical trial in CPB patients: IL-6 level by ELISA
# Protocol: (§1) A randomized prospective clinical trial was performed. Thirty-four consecutive patients with an ejection fraction >30%, undergoing elective coronary artery bypass grafting were randomized into four groups. Groups A and B received taurolidine (250 mL 2% taurolidine) intravenously at induction through a central line. These patients also received two further doses of taurolidine at 12 hour intervals (2×250 mL 2% taurolidine/day) for the first 24 hours following surgery, but in group A crystalloid cardioplegia was used for myocardial protection and in group B blood cardioplegia was used. Groups C and D received saline vehicle controls while group C had crystalloid cardioplegia and group D received blood cardioplegia. Blood samples were taken pre-operatively, at the time of aortic unclamping, 2 hours, 6 hours and 24 hours post aortic unclamping. Neutrophil and monocyte respiratory burst, phagocytosis ability, CD11b and CD14 expression were assessed using flow cytometry. Plasma interleukins 6, 8 and 10 (IL-6, IL-8 and IL-10) and tumor necrosis factor α (TNF-α) were determined by Enzyme Linked Immuno Sorbent Assay. All the patients received the standard antibiotic prophylaxis for cardiac bypass surgery.
# (§2) Patient selection was performed as follows. Patients undergoing elective coronary artery bypass grafting with an ejection fraction greater than or equal to 30%, no history of Diabetes mellitis and a normal chest x-ray were selected. Patients on ACE-inhibitors were not included in the study. The decision was made jointly by the consultant anesthetist and surgeon involved before inclusion in the study, and each patient was then randomized to drug or control. All the patients were nursed in the cardiac intensive care unit post operatively. Informed consent was sought from each patient before inclusion into the study.
# (§3) Parameters 2-4 were assessed post aortic unclamping, 2 hours and 24 hours post-operatively.
# (§4) Thirty-four patients were studied as described above.
# IL-10 = test: Randomized clinical trial in CPB patients: IL-10 level by ELISA
# Protocol: as §1, §2, §3, §4
# TNF-α = test: Randomized clinical trial in CPB patients: circulating TNF-α by ELISA; conditions: perioperative taurolidine
# Protocol: as §1
# (§5) Patient selection was performed as follows. […]
# as §3
# IL-8 = test: Randomized clinical trial in CPB patients: circulating IL-8 by ELISA; conditions: perioperative taurolidine
# Protocol: as §1, §5, §3
# [1] = tested on: neutrophil and monocyte activity (respiratory burst, phagocytosis, CD11b, CD14); test: Randomized clinical trial in CPB patients: neutrophil and monocyte activity by flow cytometry; conditions: perioperative taurolidine
# Protocol: as §1, §5, §3
# [2] = tested on: arrhythmia in CPB patients; test: Arrhythmia in CPB patients during crystalloid cardioplegia; conditions: of ten patients; crystalloid cardioplegia with taurolidine 2% solution (placebo: 8 of ten)
# From the text: Ten patients underwent CPB using crystalloid cardioplegia with taurolidine 2% solution for myocardial protection. Another ten patients underwent CPB using crystalloid cardioplegia and a placebo for myocardial protection. Three of the patients treated with taurolidine experienced arrhythmia whereas 8 of the patients treated with placebo experienced arrhythmia.
# [3] = 24 hours post aortic unclamping, crystalloid cardioplegia (Group A, n = 8), 250 mL 2% taurolidine i.v., mean ± s.d., *p < 0.05 vs. placebo
# [4] = Group A vs. Group B, p<0.05 at 24 hours post aortic unclamping
# [5] = crystalloid cardioplegia, Group A vs. Group C, 24 hour timepoint
structure (smiles),measurement,setting,value
"O=S1(=O)CCN(CN2CCS(=O)(=O)NC2)CN1 [Taurolidine, bis(1,1-dioxoperhydro-1,2,4-thiadiazin-4-yl)methane]",Serum IL-6 level,IL-6; [3],8.0 ± 1.4* pg/mL
same,"Interleukin-6, crystalloid vs. blood cardioplegia in taurolidine patients",IL-6; [4],significantly down-regulated
same,Effect on interleukin-6 in combination with blood cardioplegia,"IL-6; blood cardioplegia, Group B vs. Group D",No beneficial effect
same,Interleukin-6 vs. placebo (in words),IL-6; [5],significantly down-regulated
same,Serum IL-10 level,IL-10; [3],28.2 ± 9.6* pg/mL
same,"Interleukin-10, crystalloid vs. blood cardioplegia in taurolidine patients",IL-10; [4],significantly up-regulated
same,Interleukin-10 vs. placebo (in words),IL-10; [5],significantly up-regulated
same,Effect on circulating TNF-α,TNF-α,did not appear to modify
same,Effect on circulating IL-8,IL-8,did not appear to modify
same,Effect on neutrophil or monocyte activity,[1],did not appear to modify
same,Number of patients who experienced arrhythmia,[2],Three
